Experimental data: patent US6413947B1, “Anilide derivative, production and use thereof” (Takeda Chemical Industries, Ltd., priority 1997, dated 2002)

Row | melting point | SMILES
1 | 193 to 194 °C | CN(Cc1ccc(NC(=O)C2=Cc3cc(-c4ccc(C(C)(C)C)cc4)ccc3OCC2)cc1)C1CCOCC1 [Compound 179, N-[4-[N-methyl-N-(tetrahydropyran-4-yl)aminomethyl]phenyl]-7—(4-tert-butylphenyl)-2,3-dihydro-1-benzoxepine-4-carboxamide]
2 | 191 to 192 °C | CN(Cc1ccc(NC(=O)C2=Cc3cc(-c4ccc(Cl)cc4)ccc3OCC2)cc1)C1CCOCC1 [Compound 181, N-[4-[N-methyl-N-(tetrahydropyran-4-yl)aminomethyl]-phenyl]-7—(4-chlorophenyl)-2,3-dihydro-1-benzoxepine-4-carboxamide]
3 | 174 to 176 °C | CCOc1ccc(-c2ccc3c(c2)C=C(C(=O)Nc2ccc(CN(C)C4CCOCC4)cc2)CCO3)cc1 [Compound 185, 7—(4-ethoxyphenyl)-N-(4-[N-methyl-N-(tetrahydropyran-4-yl)aminomethyl]phenyl]-2,3-dihydro-1-benzoxepine-4-carboxamide]
4 | 187 to 188 °C | CN(Cc1ccc(NC(=O)C2=Cc3cc(-c4ccc(OC(F)(F)F)cc4)ccc3OCC2)cc1)C1CCOCC1 [Compound 186, N-[4-[N-methyl-N-(tetrahydropyran-4-yl)aminomethyl]phenyl]-7—(4-trifluoromethoxyphenyl)-2,3-dihydro-1-benzoxepine-4-carboxamide]
5 | 197 to 198 °C | CCP(=O)(CC)Cc1ccc(NC(=O)/C=C/c2cccc(-c3ccc(C)cc3)c2)cc1 [Compound 187, (E)-N-(4-diethylphosphorylmethylphenyl)-3—(4-methylphenyl)cinnamamide]
6 | 220 to 222 °C | Cc1ccc(-c2cccc(/C=C/C(=O)Nc3ccc(-c4ccccn4)cc3)c2)cc1 [Compound 188, (E)-N-[4—(2-pyridyl)phenyl]-3—(4-methylphenyl)cinnamamide]
7 | 240 to 241 °C | Cc1ccc(-c2cccc(/C=C/C(=O)Nc3ccc(-c4cccc[n+]4[O-])cc3)c2)cc1 [Compound 189, (E)-N-[4—(1-oxidopyridin-2-yl)phenyl]-3—(4-methylphenyl)cinnamamide]
8 | 169 to 171 °C | Cc1ccc(-c2cccc(/C=C/C(=O)Nc3ccc(Cc4ccccn4)cc3)c2)cc1 [Compound 190, (E)-N-[4—(2-pyridylmethyl)phenyl]-3—(4-methylphenyl)cinnamamide]
9 | 183 to 185 °C | Cc1ccc(-c2cccc(/C=C/C(=O)Nc3ccc(Cc4cccc[n+]4[O-])cc3)c2)cc1 [Compound 191, (E)-N-[4—(1-oxidopyridin-2-ylmethyl)phenyl]-3—(4-methylphenyl)cinnamamide]
10 | 213 to 214 °C | Cc1ccc(-c2cccc(/C=C/C(=O)Nc3ccc(-c4cccnc4)cc3)c2)cc1 [Compound 192, (E)-N-[4—(3-pyridyl)phenyl]-3—(4-methylphenyl)cinnamamide]
11 | 225 to 227 °C | CCCP(=O)(CCC)Cc1ccc(NC(=O)/C=C/c2cccc(-c3ccc(C)cc3)c2)cc1 [Compound 194, (E)-N-(4-dipropylphosphorylmethylphenyl)-3—(4-methylphenyl)cinnamamide]
12 | 261 to 263 °C | Cc1ccc(-c2ccc3c(c2)C=C(C(=O)Nc2ccc(Cc4cccc[n+]4[O-])cc2)CO3)cc1 [Compound 200, N-[4—(1-oxidopyridin-2-ylmethyl)phenyl]-6—(4-methylphenyl)-2H-1-benzopyran-3-carboxamide]
13 | 202 to 205 °C | Cc1ccc(-c2ccc3c(c2)C=C(C(=O)Nc2ccc(C(O)c4ccccn4)cc2)C(C)O3)cc1 (stereo not drawn) [Compound 202, N-[4-[hydroxy(2-pyridyl)methyl]-phenyl]-6—(4-methylphenyl)-2-methyl-2H-1-benzopyran-3-carboxamide]
14 | 230 to 232 °C | Cc1ccc(-c2ccc3c(c2)C=C(C(=O)Nc2ccc(C(O)c4cccc[n+]4[O-])cc2)C(C)O3)cc1 (stereo not drawn) [Compound 203, N-[4-[hydroxy(1-oxidopyridin-2-yl)-methyl]phenyl]-6—(4-methylphenyl)-2-methyl-2H-1-benzopyran-3-carboxamide]
15 | 188 to 190 °C | Cc1ccc(-c2csc(/C=C/C(=O)Nc3ccc(CN(C)C4CCOCC4)cc3)c2)cc1 [Compound 212, (E)-N-[4-[N-methyl-N-(tetrahydropyran-4-yl)aminomethyl]-phenyl)-3-[4—(4-methylphenyl)thiophen-2-yl]acrylamide]
16 | 201 to 203 °C | Cc1ccc(-c2cc3c(s2)CCCC(C(=O)Nc2ccc(CN(C)C4CCOCC4)cc2)=C3)cc1 [Compound 214, N-[4-[N-methyl-N-(tetrahydropyran-4-yl)aminomethyl]-phenyl]-2—(4-methylphenyl)-7,8-dihydro-6H-cyclohepta-[b]thiophene-5-carboxamide]
17 | 157 to 160 °C | Cc1ccc(-c2ccc3nc(C)c(C(=O)Nc4ccc(CN(C)C5CCOCC5)cc4)cc3c2)cc1 [Compound 216, N-[4-[N-methyl-N-(tetrahydropyran-4-yl)aminomethyl]phenyl]-6—(4-methylphenyl)-2-methylquinoline-3-carboxamide]
18 | 152 to 153 °C | O=C(Nc1cccc(CN2CCCCC2)c1)C1=Cc2cc(-c3ccccc3)ccc2CC1 [Compound 217, 7-phenyl-N-[3—(piperidinomethyl)phenyl]-3,4-dihydronaphthalene-2-carboxamide]
19 | 180 to 186 °C | CSc1ccc(-c2ccc3c(c2)C=C(C(=O)Nc2ccc(CN(C)C4CCOCC4)cc2)CCO3)cc1 [Compound 226, N-[4-[N-methyl-N-(tetrahydropyran-4-yl)aminomethyl]-phenyl]-7—(4-methylthiophenyl)-2,3-dihydro-1-benzoxepine-4-carboxamide]
20 | 216 to 219 °C | Cc1ccc(-c2ccc3c(c2)C=C(C(=O)Nc2ccc(C[N+](C)(C)CCCO)cc2)CCO3)cc1.[I-] [Compound 240, dimethyl-3-hydroxypropyl-(N-(7-(4-methylphenyl)-2,3-dihydro-1-benzoxepin-4-carbonyl)-4-aminobenzyl)ammonium iodide]
21 | 220 to 222 °C (dec.) | Cc1ccc(-c2ccc3c(c2)C=C(C(=O)Nc2ccc(C[N+](C)(C)C4CCOCC4)cc2)CCS3)cc1.[I-] [Compound 241, dimethyl-(N-(7-(4-methylphenyl)-2,3-dihydro-1-benzothiepine-4-carbonyl)-4-aminobenzyl)-N-(4-tetrahydropyranyl)ammonium iodide]
22 | 282 to 283 °C (dec.) | Cc1ccc(-c2ccc3c(c2)C=C(C(=O)Nc2ccc(CP4(=O)CCCCC4)cc2)CCC3)cc1 [Compound 252, 2-(4-methylphenyl)-N-(4-((1-oxophosphorinane-1-yl)methyl)phenyl)-6,7-dihydro-5H-benzocycloheptene-8-carboxamide]
23 | 233 to 235 °C | CN(Cc1ccc(NC(=O)C2=Cc3cc(-c4ccc(S(C)(=O)=O)cc4)ccc3OCC2)cc1)C1CCOCC1 [Compound 273, 7-(4-methylsulfonylphenyl)-N-[4-[N-methyl-N-(tetra-hydropyran-4-yl)aminomethyl]phenyl]-2,3-dihydro-1-benzoxepine-4-carboxamide]
24 | 187 to 189 °C | CC(C)c1ccc(-c2ccc(/C=C/C(=O)Nc3ccc(CN(C)C4CCOCC4)cc3)s2)cc1 [Compound 274, (E)-3-[5-(4-isopropylphenyl)thiophen-2-yl]-N-[4-[N-methyl-N-(tetrahydropyran-4-yl)aminomethyl]-phenyl]acrylamide]
